# Data published in patent publication US20240270762A1, “PENICILLIN-BINDING PROTEIN INHIBITORS” (priority 2021, published 2024).
# How the values were obtained:
# [1] = biological target: T1, PBP3 from Escherichia coli (K-12) (Escherichia coli, UniProt P0AD68); experiment: Bocillin-FL fluorescence polarization competition binding, E. coli PBP3
# T1 construct: made in house
# Summary of the method: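 Purified PBP was preincubated with inhibitor (E. coli PBP3 1.5 μM, 30 min; P. aeruginosa PBP3 0.75 μM, A. baumannii PBP3 0.2 μM and PBP1a 1 μM, 15 min), then Bocillin-FL (0.1 μM; 0.05 μM for PBP1a) added and FP read up to 60 min. EC50 = 50% loss of bound probe.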
# [2] = system: N. gonorrhoeae ATCC 49226; experiment: Liquid broth MIC in Fastidious broth; details: Neisseria gonorrhoeae, ATCC49226, read-out: Minimum Inhibitory Concentration (MIC), N. gonorrhoeae ATCC 49226
# N. gonorrhoeae FA1090 = experiment: Liquid broth MIC in Fastidious broth; details: Neisseria gonorrhoeae, FA1090, read-out: Minimum Inhibitory Concentration (MIC), N. gonorrhoeae FA 1090
# K. pneumoniae 848844 = experiment: microbe, parasite or virus in culture; format: cell-based; details: Klebsiella pneumoniae, 848844, read-out: MIC K. pneumoniae 848844
# N. gonorrhoeae WHO M = experiment: Liquid broth MIC in Fastidious broth; details: Neisseria gonorrhoeae, read-out: Minimum Inhibitory Concentration (MIC), N. gonorrhoeae WHO M
# P. aeruginosa ATCC 35151 = experiment: microbe, parasite or virus in culture; format: cell-based; details: Pseudomonas aeruginosa, ATCC35151, read-out: MIC P. aeruginosa ATCC 35151
# N. gonorrhoeae WHO L = experiment: Liquid broth MIC in Fastidious broth; details: Neisseria gonorrhoeae, read-out: Minimum Inhibitory Concentration (MIC), N. gonorrhoeae WHO L
# N. gonorrhoeae WHO G = experiment: Liquid broth MIC in Fastidious broth; details: Neisseria gonorrhoeae, read-out: Minimum Inhibitory Concentration (MIC), N. gonorrhoeae WHO G
# E. coli AG100A = experiment: Broth microdilution MIC in CAMHB; format: cell-based; details: Escherichia coli, read-out: MIC E. coli AG100A
# [3] = system: P. aeruginosa (ΔmexAB-oprM); experiment: Broth microdilution MIC in CAMHB; format: cell-based; details: Pseudomonas aeruginosa; read-out: MIC P. aeruginosa ΔmexAB-oprM
# K. pneumoniae SI-117 = experiment: microbe, parasite or virus in culture; format: cell-based; details: Klebsiella pneumoniae, SI117, read-out: MIC K. pneumoniae SI-117
# N. gonorrhoeae WHO X = experiment: Liquid broth MIC in Fastidious broth; details: Neisseria gonorrhoeae, read-out: Minimum Inhibitory Concentration (MIC), N. gonorrhoeae WHO X
# A. baumannii ATCC 19606 = experiment: microbe, parasite or virus in culture; format: cell-based; details: Acinetobacter baumannii, ATCC19606, read-out: MIC, A. baumannii ATCC 19606
# E. coli AG100 = experiment: microbe, parasite or virus in culture; format: cell-based; details: Escherichia coli, AG100, read-out: MIC E. coli AG100
# N. gonorrhoeae CDC-0197 = experiment: Liquid broth MIC in Fastidious broth; details: Neisseria gonorrhoeae, CDC0197, read-out: Minimum Inhibitory Concentration (MIC), N. gonorrhoeae CDC-0197
# E. coli D22 = experiment: microbe, parasite or virus in culture; format: cell-based; details: Escherichia coli, D22, read-out: MIC E. coli D22
# T1 sequence (P0AD68 1-577): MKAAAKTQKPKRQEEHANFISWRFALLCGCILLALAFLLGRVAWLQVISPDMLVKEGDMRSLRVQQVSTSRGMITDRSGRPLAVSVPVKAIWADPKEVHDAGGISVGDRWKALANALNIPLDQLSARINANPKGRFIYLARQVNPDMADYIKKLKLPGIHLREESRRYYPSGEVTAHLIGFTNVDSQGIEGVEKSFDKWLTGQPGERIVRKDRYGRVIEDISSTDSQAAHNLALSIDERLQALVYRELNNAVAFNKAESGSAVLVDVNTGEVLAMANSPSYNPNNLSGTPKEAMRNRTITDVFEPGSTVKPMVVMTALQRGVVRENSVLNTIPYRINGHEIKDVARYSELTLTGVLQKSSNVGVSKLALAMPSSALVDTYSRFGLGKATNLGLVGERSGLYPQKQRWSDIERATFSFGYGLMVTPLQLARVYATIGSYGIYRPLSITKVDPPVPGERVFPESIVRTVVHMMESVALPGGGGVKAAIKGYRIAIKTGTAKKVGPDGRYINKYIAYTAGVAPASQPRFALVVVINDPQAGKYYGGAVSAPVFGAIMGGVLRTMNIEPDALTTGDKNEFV
SMILES,EC50 [1] [µM],MIC [2] [µg/mL],MIC (N. gonorrhoeae FA1090) [µg/mL],MIC (K. pneumoniae 848844) [µg/mL],MIC (N. gonorrhoeae WHO M) [µg/mL],MIC (P. aeruginosa ATCC 35151) [µg/mL],MIC (N. gonorrhoeae WHO L) [µg/mL],MIC (N. gonorrhoeae WHO G) [µg/mL],MIC (E. coli AG100A) [µg/mL],MIC [3] [µg/mL],MIC (K. pneumoniae SI-117) [µg/mL],MIC (N. gonorrhoeae WHO X) [µg/mL],MIC (A. baumannii ATCC 19606) [µg/mL],MIC (E. coli AG100) [µg/mL],MIC (N. gonorrhoeae CDC-0197) [µg/mL],MIC (E. coli D22) [µg/mL]
"CS(=O)(=O)N1CCN(C(=O)N[C@@H](C(=O)N[C@H]2Cc3ccc(F)c(C(=O)O)c3OB2O)c2ccc(P(=O)(O)O)c(F)c2F)C1=O [Example 16, (R)-3-((R)-2-(2,3-difluoro-4-phosphonophenyl)-2-(3-(methylsulfonyl)-2-oxoimidazolidine-1-carboxamido)acetamido)-7-fluoro-2-hydroxy-3,4-dihydro-2H-benzo[e][1,2]oxaborinine-8-carboxylic acid]",< 10,< 1,< 1,> 128,< 1,2 to 4,< 1,< 1,32 to 64,> 128,> 128,< 1,> 128,> 128,< 1,8 to 16
"CS(=O)(=O)N1CCN(C(=O)NC(C(=O)N[C@H]2Cc3cccc(C(=O)O)c3OB2O)c2ccc(P(=O)(O)O)c(O)c2)C1=O (stereo partly drawn) [Example 17, (3R)-2-hydroxy-3-(2-(3-hydroxy-4-phosphonophenyl)-2-(3-(methylsulfonyl)-2-oxoimidazolidine-1-carboxamido)acetamido)-3,4-dihydro-2H-benzo[e][1,2]oxaborinine-8-carboxylic acid]",< 10,< 1,< 1,> 128,< 1,< 1,< 1,< 1,8 to 16,8 to 16,> 128,< 1,2 to 4,8 to 16,< 1,2 to 4
"CCN1CCN(C(=O)NC(C(=O)N[C@H]2Cc3cccc(C(=O)O)c3OB2O)c2ccc(CP(=O)(O)O)cc2)C(=O)C1=O (stereo partly drawn) [Example 20, (3R)-3-(2-(4-ethyl-2,3-dioxopiperazine-1-carboxamido)-2-(4-(phosphonomethyl)phenyl)acetamido)-2-hydroxy-3,4-dihydro-2H-benzo[e][1,2]oxaborinine-8-carboxylic acid]",< 10,< 1,< 1,> 128,< 1,< 1,1 to 2,< 1,8 to 16,8 to 16,> 128,1 to 2,32 to 64,8 to 16,< 1,2 to 4
"CCN1CCN(C(=O)NC(C(=O)N[C@H]2Cc3cccc(C(=O)O)c3OB2O)c2ccc(P(=O)(O)O)c(O)c2)C(=O)C1=O (stereo partly drawn) [Example 21, (3R)-3-(2-(4-ethyl-2,3-dioxopiperazine-1-carboxamido)-2-(3-hydroxy-4-phosphonophenyl)acetamido)-2-hydroxy-3,4-dihydro-2H-benzo[e][1,2]oxaborinine-8-carboxylic acid]",< 10,< 1,< 1,> 128,< 1,< 1,< 1,< 1,8 to 16,32 to 64,> 128,< 1,2 to 4,8 to 16,< 1,2 to 4
"CCN1CCN(C(=O)NC(C(=O)N[C@H]2Cc3cccc(C(=O)O)c3OB2O)c2cccc(CP(=O)(O)O)c2)C(=O)C1=O (stereo partly drawn) [Example 22, (3R)-3-(2-(4-ethyl-2,3-dioxopiperazine-1-carboxamido)-2-(3-(phosphonomethyl)phenyl)acetamido)-2-hydroxy-3,4-dihydro-2H-benzo[e][1,2]oxaborinine-8-carboxylic acid]",< 10,1 to 2,< 1,> 128,< 1,< 1,16 to 32,< 1,8 to 16,8 to 16,> 128,4 to 8,32 to 64,8 to 16,1 to 2,2 to 4
"CCN1CCN(C(=O)NC(C(=O)N[C@H]2Cc3cccc(C(=O)O)c3OB2O)c2c(F)cc(P(=O)(O)O)cc2F)C(=O)C1=O (stereo partly drawn) [Example 25, (3R)-3-(2-(2,6-difluoro-4-phosphonophenyl)-2-(4-ethyl-2,3-dioxopiperazine-1-carboxamido)acetamido)-2-hydroxy-3,4-dihydro-2H-benzo[e][1,2]oxaborinine-8-carboxylic acid]",< 10,< 1,< 1,> 128,< 1,2 to 4,1 to 2,< 1,32 to 64,32 to 64,> 128,4 to 8,> 128,32 to 64,< 1,2 to 4
"CC(=O)NC(C(=O)N[C@H]1Cc2cccc(C(=O)O)c2OB1O)c1ccc(P(=O)(O)O)cc1 (stereo partly drawn) [Example 26, (3R)-3-(2-acetamido-2-(4-phosphonophenyl)acetamido)-2-hydroxy-3,4-dihydro-2H-benzo[e][1,2]oxaborinine-8-carboxylic acid]",50 to 250,16 to 32,16 to 32,> 128,4 to 8,8 to 16,16 to 32,16 to 32,32 to 64,> 128,> 128,16 to 32,> 128,> 128,16 to 32,32 to 64
"CCC(=O)NC(C(=O)N[C@H]1Cc2cccc(C(=O)O)c2OB1O)c1ccc(P(=O)(O)O)cc1 (stereo partly drawn) [Example 27, (3R)-2-hydroxy-3-(2-(4-phosphonophenyl)-2-propionamidoacetamido)-3,4-dihydro-2H-benzo[e][1,2]oxaborinine-8-carboxylic acid]",50 to 250,16 to 32,4 to 8,> 128,4 to 8,8 to 16,16 to 32,4 to 8,> 128,> 128,> 128,16 to 32,> 128,> 128,16 to 32,32 to 64
"CC(C)C(=O)NC(C(=O)N[C@H]1Cc2cccc(C(=O)O)c2OB1O)c1ccc(P(=O)(O)O)cc1 (stereo partly drawn) [Example 28, (3R)-2-hydroxy-3-(2-isobutyramido-2-(4-phosphonophenyl)acetamido)-3,4-dihydro-2H-benzo[e][1,2]oxaborinine-8-carboxylic acid]",50 to 250,16 to 32,4 to 8,> 128,4 to 8,8 to 16,16 to 32,4 to 8,> 128,> 128,> 128,16 to 32,> 128,> 128,16 to 32,32 to 64
"CC(C)(C)C(=O)NC(C(=O)N[C@H]1Cc2cccc(C(=O)O)c2OB1O)c1ccc(P(=O)(O)O)cc1 (stereo partly drawn) [Example 29, (3R)-2-hydroxy-3-(2-(4-phosphonophenyl)-2-pivalamidoacetamido)-3,4-dihydro-2H-benzo[e][1,2]oxaborinine-8-carboxylic acid]",50 to 250,16 to 32,4 to 8,> 128,4 to 8,2 to 4,16 to 32,16 to 32,> 128,8 to 16,> 128,16 to 32,32 to 64,> 128,16 to 32,8 to 16
